Species on record: Rattus norvegicus
Assay: Open TG-GATES - Regimen: Daily Repeat
Format: toxicity, organism-based, Sprague-Dawley
Parameters: regimen Daily Repeat, gender Male, age 6 weeks
Details: in vivo, sc, 0.02 mg/kg, route subcutaneous injection, dose 20 ug/Kg, dose level Middle; for APTT / Bas / Eos / Fbg / Hb / Ht / Lym / MCH / MCHC / MCV / Mono / Neu / PT / Plat / RBC / Ret / WBC: tissue Blood; for KIDNEY_L / KIDNEY_R / KIDNEY_TOTAL: tissue Kidney; for LIVER: tissue Liver; for A/G / ALP / ALT / AST / BUN / CRE / Ca / Cl / DBIL / GLC / IP / K / LDH / Na / PL / RALB / TBIL / TC / TG / TP / gamma-GTP: tissue Plasma

CC(=O)O.N=C(N)NCCC[C@@H](NC(=O)[C@@H]1CCCN1C(=O)[C@@H]1CSSCCC(=O)N[C@@H](Cc2ccc(O)cc2)C(=O)N[C@@H](Cc2ccccc2)C(=O)N[C@@H](CCC(N)=O)C(=O)N[C@@H](CC(N)=O)C(=O)N1)C(=O)NCC(N)=O [DESMOPRESSIN ACETATE]
TERMINAL_BW (72 h, time 3 day): 235.6 g
APTT (72 h, time 3 day): 16.2 s
Bas (72 h, time 3 day): 0%
Eos (72 h, time 3 day): 1%
Fbg (72 h, time 3 day): 270.4 mg/dL
Hb (72 h, time 3 day): 13.3 g/dL
Ht (72 h, time 3 day): 40.4%
Lym (72 h, time 3 day): 69.8%
MCH (72 h, time 3 day): 21.6 pg
MCHC (72 h, time 3 day): 32.8%
MCV (72 h, time 3 day): 65.8 fL
Mono (72 h, time 3 day): 8.6%
Neu (72 h, time 3 day): 20.6%
PT (72 h, time 3 day): 11.8 s
Plat (72 h, time 3 day): 123.6 x10_4/uL
RBC (72 h, time 3 day): 613.8 x10_4/ul
Ret (72 h, time 3 day): 8%
WBC (72 h, time 3 day): 99.6 x10_2/uL
KIDNEY_L (72 h, time 3 day): 1.1 g
KIDNEY_R (72 h, time 3 day): 1.1 g
KIDNEY_TOTAL (72 h, time 3 day): 2.2 g
LIVER (72 h, time 3 day): 10.9 g
A/G (72 h, time 3 day): 2
ALP (72 h, time 3 day): 1305 IU/L
ALT (72 h, time 3 day): 39 IU/L
AST (72 h, time 3 day): 72.8 IU/L
BUN (72 h, time 3 day): 16.2 mg/dL
CRE (72 h, time 3 day): 0.4 mg/dL
Ca (72 h, time 3 day): 11.4 mg/dL
Cl (72 h, time 3 day): 103 meq/L
DBIL (72 h, time 3 day): 0.012 mg/dL
GLC (72 h, time 3 day): 193 mg/dL
IP (72 h, time 3 day): 7.9 mg/dL
K (72 h, time 3 day): 5.3 meq/L
LDH (72 h, time 3 day): 205.2 IU/L
Na (72 h, time 3 day): 135 meq/L
PL (72 h, time 3 day): 157.2 mg/dL
RALB (72 h, time 3 day): 3.8 g/dL
TBIL (72 h, time 3 day): 0.04 mg/dL
TC (72 h, time 3 day): 87.6 mg/dL
TG (72 h, time 3 day): 108.8 mg/dL
TP (72 h, time 3 day): 5.7 g/dL
gamma-GTP (72 h, time 3 day): 1 IU/L
TERMINAL_BW ([…], time 7 day): 276.7 g
TERMINAL_BW ([…], time 14 day): 325 g
TERMINAL_BW ([…], time 28 day): 428.4 g
APTT ([…], time 7 day): 16.6 s
Bas ([…], time 7 day): 0%
Eos ([…], time 7 day): 1.2%
Fbg ([…], time 7 day): 263.2 mg/dL
Hb ([…], time 7 day): 13 g/dL
Ht ([…], time 7 day): 39.8%
Lym ([…], time 7 day): 72.2%
MCH ([…], time 7 day): 20.8 pg
MCHC ([…], time 7 day): 32.7%
MCV ([…], time 7 day): 63.6 fL
Mono ([…], time 7 day): 6.8%
Neu ([…], time 7 day): 20%
PT ([…], time 7 day): 12.2 s
Plat ([…], time 7 day): 125.6 x10_4/uL
RBC ([…], time 7 day): 627 x10_4/ul
Ret ([…], time 7 day): 7.1%
WBC ([…], time 7 day): 114 x10_2/uL
APTT ([…], time 14 day): 17.5 s
Bas ([…], time 14 day): 0%
Eos ([…], time 14 day): 1.2%
Fbg ([…], time 14 day): 253.6 mg/dL
Hb ([…], time 14 day): 14.2 g/dL
Ht ([…], time 14 day): 43.2%
Lym ([…], time 14 day): 72%
MCH ([…], time 14 day): 20 pg
MCHC ([…], time 14 day): 32.8%
MCV ([…], time 14 day): 60.9 fL
Mono ([…], time 14 day): 10.6%
Neu ([…], time 14 day): 16.6%
PT ([…], time 14 day): 12.2 s
Plat ([…], time 14 day): 123.2 x10_4/uL
RBC ([…], time 14 day): 710.2 x10_4/ul
Ret ([…], time 14 day): 6%
WBC ([…], time 14 day): 101.6 x10_2/uL
APTT ([…], time 28 day): 16.7 s
Bas ([…], time 28 day): 0%
Eos ([…], time 28 day): 0.8%
Fbg ([…], time 28 day): 250 mg/dL
Hb ([…], time 28 day): 15 g/dL
Ht ([…], time 28 day): 46.3%
Lym ([…], time 28 day): 75.8%
MCH ([…], time 28 day): 19.3 pg
MCHC ([…], time 28 day): 32.5%
MCV ([…], time 28 day): 59.4 fL
Mono ([…], time 28 day): 6%
Neu ([…], time 28 day): 17.4%
PT ([…], time 28 day): 11.8 s
Plat ([…], time 28 day): 112 x10_4/uL
RBC ([…], time 28 day): 780.2 x10_4/ul
Ret ([…], time 28 day): 3.5%
WBC ([…], time 28 day): 128.4 x10_2/uL
KIDNEY_L ([…], time 7 day): 1.2 g
KIDNEY_R ([…], time 7 day): 1.2 g
KIDNEY_TOTAL ([…], time 7 day): 2.5 g
KIDNEY_L ([…], time 14 day): 1.3 g
KIDNEY_R ([…], time 14 day): 1.4 g
KIDNEY_TOTAL ([…], time 14 day): 2.7 g
KIDNEY_L ([…], time 28 day): 1.7 g
KIDNEY_R ([…], time 28 day): 1.7 g
KIDNEY_TOTAL ([…], time 28 day): 3.4 g
LIVER ([…], time 7 day): 12.1 g
LIVER ([…], time 14 day): 13.4 g
LIVER ([…], time 28 day): 16.1 g
A/G ([…], time 7 day): 2
ALP ([…], time 7 day): 1103 IU/L
ALT ([…], time 7 day): 29.6 IU/L
AST ([…], time 7 day): 69.6 IU/L
BUN ([…], time 7 day): 15.4 mg/dL
CRE ([…], time 7 day): 0.4 mg/dL
Ca ([…], time 7 day): 13.4 mg/dL
Cl ([…], time 7 day): 100.2 meq/L
DBIL ([…], time 7 day): 0.01 mg/dL
GLC ([…], time 7 day): 201 mg/dL
IP ([…], time 7 day): 7.9 mg/dL
K ([…], time 7 day): 5.1 meq/L
LDH ([…], time 7 day): 160.2 IU/L
Na ([…], time 7 day): 130.8 meq/L
PL ([…], time 7 day): 138 mg/dL
RALB ([…], time 7 day): 3.6 g/dL
TBIL ([…], time 7 day): 0.042 mg/dL
TC ([…], time 7 day): 75.8 mg/dL
TG ([…], time 7 day): 95 mg/dL
TP ([…], time 7 day): 5.5 g/dL
gamma-GTP ([…], time 7 day): 1 IU/L
A/G ([…], time 14 day): 1.8
ALP ([…], time 14 day): 1136 IU/L
ALT ([…], time 14 day): 29.4 IU/L
AST ([…], time 14 day): 68.2 IU/L
BUN ([…], time 14 day): 17.8 mg/dL
CRE ([…], time 14 day): 0.4 mg/dL
Ca ([…], time 14 day): 10.6 mg/dL
Cl ([…], time 14 day): 105.8 meq/L
DBIL ([…], time 14 day): 0.014 mg/dL
GLC ([…], time 14 day): 190.6 mg/dL
IP ([…], time 14 day): 7.3 mg/dL
K ([…], time 14 day): 5.3 meq/L
LDH ([…], time 14 day): 133.8 IU/L
Na ([…], time 14 day): 138.4 meq/L
PL ([…], time 14 day): 130.6 mg/dL
RALB ([…], time 14 day): 3.7 g/dL
TBIL ([…], time 14 day): 0.032 mg/dL
TC ([…], time 14 day): 65.2 mg/dL
TG ([…], time 14 day): 109.4 mg/dL
TP ([…], time 14 day): 5.7 g/dL
gamma-GTP ([…], time 14 day): 1 IU/L
A/G ([…], time 28 day): 1.6
ALP ([…], time 28 day): 834.8 IU/L
ALT ([…], time 28 day): 27.4 IU/L
AST ([…], time 28 day): 65 IU/L
BUN ([…], time 28 day): 18 mg/dL
CRE ([…], time 28 day): 0.4 mg/dL
Ca ([…], time 28 day): 9.1 mg/dL
Cl ([…], time 28 day): 104.2 meq/L
DBIL ([…], time 28 day): 0.014 mg/dL
GLC ([…], time 28 day): 190 mg/dL
IP ([…], time 28 day): 6.7 mg/dL
K ([…], time 28 day): 4.9 meq/L
LDH ([…], time 28 day): 143.8 IU/L
Na ([…], time 28 day): 137.6 meq/L
PL ([…], time 28 day): 135.2 mg/dL
RALB ([…], time 28 day): 3.7 g/dL
TBIL ([…], time 28 day): 0.048 mg/dL
TC ([…], time 28 day): 69.4 mg/dL
TG ([…], time 28 day): 107.8 mg/dL
TP ([…], time 28 day): 6.1 g/dL
gamma-GTP ([…], time 28 day): 0.4 IU/L

Source: ChEMBL document CHEMBL3885861, “Open TG-GATES”
